We go through 14 compounds from patent US20100216805A1, “MODULATION OF NEUROGENESIS USING D-CYCLOSERINE COMBINATIONS” (BrainCells, Inc., priority 2009, published 2010).

In assay [1] the test system is Human neural stem cells (hNSCs). As to the kind of experiment: Neuronal differentiation of human neural stem cells (TUJ-1 staining), concentration response and combination index. In kind it is cell-based. The procedure: Mitogen-free test media with a positive control for neuronal differentiation was used along with basal media without growth factors as a negative control.
To determine the most efficacious dose and dose ratio of D-cycloserine in combination with pindolol or (S)-(−)-pindolol for future preclinical and clinical studies, dose ranging studies were conducted examining synergy for neurogenesis. […] The pindolol or (S)-(−)-pindolol concentrations were varied based on the respective ratios tested. Individual dose response curves were prepared for each concentration ratio as previously described with cells stained with TUJ-1 antibody for the detection of neuronal differentiation.
The presence of synergy was determined by use of a combination index (CI). […] The CI is a quantitative measure of the nature of drug interactions, comparing the EC50's of two compounds, when each is assayed alone, to the EC50 of each compound when assayed in combination. The combination index (CI) is equal to the following formula: […]
where C1 and C2 are the concentrations of a first and a second compound, respectively, resulting in 50% activity in neuronal differentiation when assayed in combination; and IC1 and IC2 are the concentrations of each compound resulting in 50% activity when assayed independently.

The next assay concerns the target human mGlu2 (Homo sapiens, UniProt Q14416). The following applies: in vitro; low nanomolar range; read-out: EC50 against human mGlu2 receptor; cited from earlier work.
The target of a further assay is human mGlu3 (Homo sapiens, UniProt Q14832). The following applies: in vitro; low nanomolar range; read-out: EC50 against human mGlu3 receptor; cited from earlier work.
Chain of human mGlu3 (Q14832 23-879): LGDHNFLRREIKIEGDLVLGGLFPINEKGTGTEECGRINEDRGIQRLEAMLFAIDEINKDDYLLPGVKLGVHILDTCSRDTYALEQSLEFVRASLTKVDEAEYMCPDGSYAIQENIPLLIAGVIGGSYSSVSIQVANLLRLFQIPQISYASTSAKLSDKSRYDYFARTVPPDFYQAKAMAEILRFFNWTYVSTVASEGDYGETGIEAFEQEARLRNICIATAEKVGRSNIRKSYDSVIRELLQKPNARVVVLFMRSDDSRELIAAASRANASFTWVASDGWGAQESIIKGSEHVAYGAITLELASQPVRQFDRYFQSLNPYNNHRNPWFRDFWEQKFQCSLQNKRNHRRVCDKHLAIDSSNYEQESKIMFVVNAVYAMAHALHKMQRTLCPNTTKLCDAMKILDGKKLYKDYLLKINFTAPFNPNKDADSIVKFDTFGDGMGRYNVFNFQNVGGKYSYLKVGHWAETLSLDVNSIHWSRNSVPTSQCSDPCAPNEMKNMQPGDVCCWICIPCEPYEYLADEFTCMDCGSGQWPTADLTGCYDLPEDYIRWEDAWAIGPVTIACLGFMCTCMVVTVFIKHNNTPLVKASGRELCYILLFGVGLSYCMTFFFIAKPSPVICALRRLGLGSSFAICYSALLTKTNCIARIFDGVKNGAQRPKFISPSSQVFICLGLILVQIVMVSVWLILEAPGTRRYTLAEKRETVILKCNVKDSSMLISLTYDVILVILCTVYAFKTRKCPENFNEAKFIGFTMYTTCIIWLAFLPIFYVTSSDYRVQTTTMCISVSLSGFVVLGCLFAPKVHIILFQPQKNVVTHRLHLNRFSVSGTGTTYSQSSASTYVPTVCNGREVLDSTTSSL
Assay [2] deals with KA, AMPA, and NMDA iGlu receptors. The following applies: cited from earlier work.
In the next assay the target is mGluR2 (Homo sapiens, UniProt Q14416). The note with it: read-out: IC50 against mGluR2; cited from earlier work.
Chain of mGluR2 (Q14416 19-872): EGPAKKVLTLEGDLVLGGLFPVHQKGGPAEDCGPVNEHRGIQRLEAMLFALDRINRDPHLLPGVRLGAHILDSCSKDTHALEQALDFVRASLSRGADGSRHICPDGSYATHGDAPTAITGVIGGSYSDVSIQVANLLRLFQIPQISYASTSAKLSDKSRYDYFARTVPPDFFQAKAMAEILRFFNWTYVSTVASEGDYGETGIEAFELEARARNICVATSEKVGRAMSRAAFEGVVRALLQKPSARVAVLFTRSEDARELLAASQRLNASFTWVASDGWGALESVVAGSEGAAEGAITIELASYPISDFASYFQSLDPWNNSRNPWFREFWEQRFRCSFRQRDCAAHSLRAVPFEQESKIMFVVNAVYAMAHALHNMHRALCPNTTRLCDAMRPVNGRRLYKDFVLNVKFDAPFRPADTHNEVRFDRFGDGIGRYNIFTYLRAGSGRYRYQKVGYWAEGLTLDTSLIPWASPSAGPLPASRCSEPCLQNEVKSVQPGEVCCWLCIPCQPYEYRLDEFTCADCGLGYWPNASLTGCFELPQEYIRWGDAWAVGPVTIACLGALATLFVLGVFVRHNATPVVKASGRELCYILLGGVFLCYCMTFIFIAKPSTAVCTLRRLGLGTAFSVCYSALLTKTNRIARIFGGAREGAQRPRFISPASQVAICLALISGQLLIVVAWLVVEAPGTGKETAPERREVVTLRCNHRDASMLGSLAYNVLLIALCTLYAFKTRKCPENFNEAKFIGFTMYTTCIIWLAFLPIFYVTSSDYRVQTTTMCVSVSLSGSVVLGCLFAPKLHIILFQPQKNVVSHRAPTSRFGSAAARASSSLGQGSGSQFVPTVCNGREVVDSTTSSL
The next assay addresses mGluR3 (Homo sapiens, UniProt Q14832). The note with it: read-out: IC50 against mGluR3; cited from earlier work.
Assay [3] relates to Group I or Group III receptors. The following applies: at sub-mM concentrations; cited from earlier work.
The mark [4] stands for this setting: Homo sapiens, Neural stem cell, agent run independently, % of neuronal positive control, basal media subtracted, figure legends, read-out: EC50 when used alone, neuronal differentiation.

Values joined by “and” are separate entries in the source; they are usually repeats but may differ in a detail not shown here. Identical values can stand only once. Like-named read-outs stand apart in the source and are kept apart here.

Chain of mGluR3 (Q14832 23-879): as the sequence (Q14832 23-879) above
Chain of human mGlu2 (Q14416 19-872): as the sequence (Q14416 19-872) above

In general, EC50 refers to the concentration giving half of the maximal effect. For `CC(C)(C)NCC(O)COc1cccc2c1CC(O)C(O)C2` (centres unmarked) [nadolol], the concentration for a half-maximal effect (EC50) in assay [1] (setting [4]) was found to be 6.7 µM. Still for that read-out and setting: for `CCC(=O)c1c(O)cc(O)cc1O` [flopropione] the value was 16.6 µM.

With `CC(C)NC[C@H](O)COc1cccc2[nH]ccc12` [(S)-(−)-Pindolol], the half-maximal effective concentration (EC50) is 2.8 µM and 1.82 µM and 1.78 µM in assay [1] (Table 2, (S)-(−)-pindolol alone, run with the ratio of that row, read-out: Solo EC50's (S)-(−)-Pindolol); 1.8 µM in assay [1] (agent run independently, % of neuronal positive control, basal media subtracted, figure legends, read-out: EC50 when used alone, neuronal differentiation). Consider `CC1(C)O[C@@H]2[C@@H](CO[C@@]3(COS(N)(=O)=O)OC(C)(C)O[C@@H]23)O1` [topiramate], for which, in assay [1] (setting [4]), the concentration for a half-maximal effect (EC50) stood at 7.1 µM. For the compound `CC(CCc1ccccc1)NCC(O)c1ccc(O)c(C(N)=O)c1` (centres unmarked) [labetalol], in assay [1] (setting [4]), the EC50 is 5.5 µM.

For the compound `Nc1nc2ncc(CNc3ccc(C(=O)N[C@@H](CCC(=O)O)C(=O)O)cc3)nc2c(=O)[nH]1` [folic acid], the concentration for a half-maximal effect (EC50) in assay [1] (setting [4]) amounted to 1.09 µM. On to `N[C@@]1(C(=O)O)CO[C@H]2[C@H](C(=O)O)[C@H]21` [LY379268, (−)-2-Oxa-4-aminobicyclohexane-4,6-dicarboxylic acid], for which the EC50 on human mGlu2 and on human mGlu3 was less than 0.01 µM in each case. With `CC(=O)N[C@@H](CS)C(=O)O` [N-acetyl-L-cysteine], the half-maximal effective concentration (EC50) in assay [1] (setting [4]) worked out at 114 µM.

For `CC(C)NCC(O)COc1cccc2[nH]ccc12` (centres unmarked) [Pindolol], the 50% effective concentration (EC50) in assay [1] (Homo sapiens, Neural stem cell, Table 1, pindolol alone, run with the ratio of that row, read-out: Solo EC50's Pindolol) was 1.43 µM; in assay [1] (setting [4]), 1.4 µM; in assay [1] (Table 1, pindolol alone, run with the ratio of that row, read-out: Solo EC50's Pindolol), 1.32 µM and 1.98 µM and 1.65 µM.

Consider `COCCOC(=O)C1=C(C)NC(C)=C(C(=O)OC(C)C)C1c1cccc([N+](=O)[O-])c1` (centres unmarked) [nimodipine], for which the EC50 in assay [1] (setting [4]) worked out at 100 µM. Take `NC(=O)C[S+]([O-])C(c1ccccc1)c1ccccc1` (centres unmarked) [modafinil]: the EC50 in assay [1] (Homo sapiens, Neural stem cell, read-out: EC50 when used alone, neuronal differentiation) was 11 µM. On to `N[C@](CC1c2ccccc2Oc2ccccc21)(C(=O)O)[C@H]1C[C@@H]1C(=O)O` [LY341495, (2S)-2-amino-2-(1S,2S-2-carboxycycloprop-1-yl)-3-(xanth-9-yl) propanoic acid], for which the “activity against KA, AMPA, and NMDA iGlu receptors” value in assay [2] was “substantially inactive”.

One may read the IC50 as the concentration that gives 50% inhibition. With `NC1(C(=O)O)CCc2cc(P(=O)(O)O)ccc21` (racemic) [APICA, (RS)-1-amino-5-phosphonoindan-1-carboxylic acid], the half-inhibitory concentration (IC50) at mGluR2 and at mGluR3 was roughly 30 µM each time. In addition, the “activity against Group I or Group III receptors” value in assay [3] was “no appreciable activity”. For `N[C@@H]1CONC1=O` [D-cycloserine, (4R)-4-amino-1,2-oxazolidin-3-one], the 50% effective concentration (EC50) was 7.91 µM in assay [1] (Homo sapiens, Neural stem cell, Table 1, D-cycloserine alone, run with the ratio of that row, read-out: Solo EC50's D-cycloserine); 5.62 µM in assay [1] (Homo sapiens, Neural stem cell, Table 2, D-cycloserine alone, run with the ratio of that row, read-out: Solo EC50's D-cycloserine); 8.48 µM and 7.41 µM in assay [1] (Table 1, D-cycloserine alone, run with the ratio of that row, read-out: Solo EC50's D-cycloserine); 8.48 µM in assay [1] (Table 2, D-cycloserine alone, run with the ratio of that row, read-out: Solo EC50's D-cycloserine).
